# Experimental data taken from patent US20050003029A1, “UTILIZATION OF RUTINS AND AESCINS IN THE TREATMENT OF OCULAR CIRCULATORY DISTURBANCES” (priority 2001, published 2005).
# Tested on: retinal hemorrhages and vascular leakages
# Test: Efficacy case examples: oral therapy of patients with retinal hemorrhages and vascular leakages, detected by fluorescence angiography
# Type: in vivo, human
# Details: orally daily
# Excerpt: (§1) patient with severe visual impairment.
# 2 relatively small intraretinal hemorrhages on the retina existed, further 8 vascular leakages stainable with fluorescein sodium and detectable using fluorescence angiography. The finding existed for 4 months with the tendency to worsen. The basic disease present was a generalized sclerotic vascular complaint.
# patient with suddenly commencing visual impairment, which had existed for 5 months.
# A relatively large intraretinal strip hemorrhage existed as a result of a branch vein thrombosis, further 3 vascular leakages detectable by fluorescence angiography. The basic disease present was latent diabetes mellitus.
# as §1
# 1 relatively large and 2 smaller retinal hemorrhages existed; further three vascular leakages which were detectable using fluorescence angiography. The basic disease was a generalized vascular complaint. The finding existed for 5 months with the tendency for increasing worsening.
# as §1
# A large subretinal hemorrhage existed, further 2 vascular leakages detectable by fluorescence angiography. A risk factor to be seen was the taking for years of a hormonal anticontraceptive.
compound,measurement,setting,value
"CC1OC(OCC2OC(Oc3c(-c4ccc(OCCO)c(OCCO)c4)oc4cc(OCCO)cc(O)c4c3=O)C(O)C(O)C2O)C(O)C(O)C1O (stereo not drawn) [troxerutin, 3′,4′,7-tris-O-(β-hydroxyethyl)rutin]",leakages sealed,"Case example 1, after 2 weeks",1 leakages
same,leakages sealed (total),"Case example 1, after 4 weeks",3 leakages
same,intraretinal hemorrhages (status),"Case example 1, four-week therapy, 2 relatively small hemorrhages",unchanged
same,vascular leakages (status),"Case example 2, three-week therapy, 3 leakages before",unchanged
same,resorption of intraretinal strip hemorrhage,"Case example 2, three-week therapy, measured by the starting size",10%
same,resorption of a small hemorrhage,"Case example 3, patient, three-week therapy",low-grade beginning of resorption
same,leakages sealed,"Case example 3, three-week therapy",1 leakages
same,leakages sealed,"Case example 4, 2 leakages before",1 leakages
same,resorption of the large subretinal hemorrhage,"Case example 4, combination three weeks, measured by the starting size",approximately 5%
